Measured values as given in the Deep4Chem optical property database.
Several values for one entry are separate records, joined by “and”; a condition that tells them apart may be missing. Equal entries are not always repeated. Blank lines part the entries; values can stand above or below the compound they belong to.

Assay: solvent given as SMILES

absorption maximum (in C1COCCO1): 345 nm
absorption maximum (in CC#N): 344 nm
absorption maximum (in CO): 342 nm
absorption maximum (in ClCCl): 348 nm
SMILES: CN(C)c1nc(N(C)C)c2nc(C#N)n(Cc3ccccc3)c2n1

absorption maximum (in O): 454 nm
SMILES: CC[n+]1c(-c2ccccc2)c2cc(NC(N)=[NH2+])ccc2c2ccc(N)cc21

absorption maximum (in CC#N): 513 nm
absorption maximum (in CCCCCC): 518 nm
absorption maximum (in CCOC(C)=O): 515 nm
absorption maximum (in CO): 512 nm
absorption maximum (in ClCCl): 518 nm
SMILES: COC1=[N+]2C(=C(c3ccccc3)c3cc(SC#N)c(OC)n3[B-]2(F)F)C=C1SC#N

absorption maximum (in ClCCl): 409 nm
SMILES: CCN(CC)c1ccc2cc(-c3ccc(-c4ccc(-c5cc6ccccc6oc5=O)cc4)cc3)c(=O)oc2c1

absorption maximum (in ClCCl): 421 nm
SMILES: C(#Cc1nc(C#Cc2ccccc2)c(C#Cc2ccccc2)c(C#Cc2ccccc2)c1C#Cc1ccccc1)c1ccccc1

absorption maximum (in CC#N): 459 nm
SMILES: CCN(CC)c1ccc2cc(/C=C/c3ccc([N+](=O)[O-])cc3)c(=O)oc2c1

absorption maximum (in CCO): 656 nm
SMILES: CCN(C(C)=O)c1cc2c(cc1C)C(c1ccccc1C(=O)O)=C1CCCC(/C=C/C3=[N+](C)c4ccccc4C3(C)C)=C1O2

absorption maximum (in CCCCCCCCCCCCCC): 409 nm
SMILES: COc1ccsc1-c1ccc(-c2ccc(-c3sccc3OC)s2)s1

absorption maximum (in CCCCCCCCCCCCCC): 391 nm
absorption maximum (in ClCCl): 393 nm
SMILES: c1csc(-c2ccc(-c3ccc(-c4cccs4)s3)s2)c1

absorption maximum (in CC#N): 336 nm
SMILES: COc1ccc(/C=C2\OC(=O)c3ccccc32)cc1

absorption maximum (in ClCCl): 737 nm
SMILES: F[B-]1(F)n2c(-c3ccccc3)c3ccc4ccccc4c3c2N=C2c3c(ccc4ccccc34)C(c3ccccc3)=[N+]21

absorption maximum (in ClC(Cl)Cl): 380 nm
SMILES: CCCCCCN1C(=O)c2cccc3cc(/N=C\c4ccc(N(c5ccccc5)c5ccccc5)cc4)cc(c23)C1=O

absorption maximum (in ClC(Cl)Cl): 727 nm
SMILES: CC(C)C1=c2c(c3[nH]cc(C(C)C)c3c3ccccc23)=[N+]2C1=Cc1c(C(C)C)c3c4ccccc4c4c(C(C)C)c[nH]c4c3n1[B-]2(F)F

absorption maximum (in CC1CCCO1): 476 nm
SMILES: COc1c(-c2c(OC)c3cccc4ccc5oc(=O)cc2c5c43)c2cc(=O)oc3ccc4cccc1c4c32

absorption maximum (in O): 650 nm
SMILES: CC1=CC(C)=[N+]2C1=C(c1ccc(O)cc1)c1c(C)cc(/C=C/C=C3/N(C)c4ccccc4C3(C)C)n1[B-]2(F)F

absorption maximum (in ClCCl): 336 nm
SMILES: FC(F)(F)c1ccc(C2=Cc3ccccc3[Si]2(c2ccccc2)c2ccccc2)cc1

absorption maximum (in CO): 800 nm
SMILES: CS1(C)C(/C=C/C2=C(c3ccc(C(=O)O)cc3)C(=C/C=C3/N(CCCCS(=O)(=O)[O-])c4ccccc4S3(C)C)/CCC2)=[N+](CCCCS(=O)(=O)[O-])c2ccccc21

absorption maximum (in ClCCl): 340 nm
SMILES: COc1ccc2ccccc2c1C1=CC(c2ccccc2)=C(c2ccccc2)C1

absorption maximum (in ClCCl): 402 nm
absorption maximum (in O): 509 nm
absorption maximum (in OCC(O)CO): 496 nm
SMILES: C[n+]1ccc(/C=C/c2ccc(N(c3ccccc3)c3ccc(/C=C/c4cc[n+](C)cc4)cc3)cc2)cc1

absorption maximum (in ClC(Cl)Cl): 530 nm
SMILES: c1ccc(N(c2ccccc2)c2ccc(-c3ccc(-c4ccc(-c5ccc(-c6ccc(N(c7ccccc7)c7ccccc7)cc6)s5)c5nsnc45)s3)cc2)cc1

absorption maximum (in CC#N): 393 nm
absorption maximum (in CO): 396 nm
absorption maximum (in ClCCl): 394 nm
SMILES: O=C1c2ccccc2-c2c(-c3ccccc3O)[nH]c(=O)n21

absorption maximum (in C1CCOC1): 409 nm
SMILES: COc1cc2c(cc1-c1ccc([N+](=O)[O-])cc1)Cc1c3c(c4c(c1-2)-c1cc(OC)c(-c2ccc([N+](=O)[O-])cc2)cc1C4)C(=O)N(CCC(C)C)C3=O

absorption maximum (in ClC(Cl)Cl): 328 nm
SMILES: C(#Cc1ccc(C#Cc2ccccc2)cc1)c1ccccc1

absorption maximum (in ClCCl): 371 nm
SMILES: C(#Cc1c(C#Cc2ccccc2)c(C#Cc2ccccc2)c(C#Cc2ccccc2)c(C#Cc2ccccc2)c1C#Cc1ccccc1)c1ccccc1

absorption maximum (in C1CCOC1): 584 nm
absorption maximum (in CCCCCC): 583 nm
absorption maximum (in CO): 583 nm
absorption maximum (in CS(C)=O): 587 nm
absorption maximum (in ClC(Cl)Cl): 584 nm
absorption maximum (in ClCCl): 583 nm
SMILES: CC1=[N+]2C(=c3c4c5ccccc5cc5cccc(c6cc(C)n(c36)[B-]2(F)F)c54)C=C1

The remaining lines, values behind:

SMILES: CC(C)[Si](C#Cc1c2ccc(C(C)(C)C)cc2c(C#Cc2c3ccc(C(C)(C)C)cc3c(C#Cc3c4ccc(C(C)(C)C)cc4c(C#C[Si](C(C)C)(C(C)C)C(C)C)c4ccc(C(C)(C)C)cc34)c3ccc(C(C)(C)C)cc23)c2ccc(C(C)(C)C)cc12)(C(C)C)C(C)C
absorption maximum (in Cc1ccccc1): 570 nm

SMILES: C(#Cc1ccc2ncsc2c1)c1ccc(N(c2ccccc2)c2ccccc2)cc1
absorption maximum (in Cc1ccccc1): 365 nm

SMILES: C#CCNC1=C2C=CC=[N+]2[B-](F)(F)n2cccc21
absorption maximum (in C1CCCCC1): 422.5 nm and 426 nm
absorption maximum (in CC(C)=O): 406 nm
absorption maximum (in CCCCO): 406 nm
absorption maximum (in CCCO): 408 nm
absorption maximum (in CCO): 406.5 nm and 406 nm
absorption maximum (in CCOC(C)=O): 408.5 nm
absorption maximum (in CN(C)C=O): 404 nm
absorption maximum (in CO): 405 nm
absorption maximum (in CS(C)=O): 404 nm
absorption maximum (in Cc1ccccc1): 421 nm
absorption maximum (in ClC(Cl)Cl): 418 nm
absorption maximum (in OCC(F)(F)F): 404 nm
absorption maximum (in c1ccccc1): 422 nm

SMILES: CC(=O)c1c2c(cc3cc(N(C)C)ccc13)CCC2
absorption maximum (in C1CCCCC1): 363 nm
absorption maximum (in C1CCOC1): 370 nm
absorption maximum (in C1COCCO1): 370 nm
absorption maximum (in CC#N): 370 nm
absorption maximum (in CCO): 374 nm
absorption maximum (in CS(C)=O): 374 nm
absorption maximum (in Cc1ccccc1): 368 nm
absorption maximum (in ClC(Cl)Cl): 373 nm
absorption maximum (in ClCCl): 372 nm

SMILES: COc1cccc(OC)c1-c1c2ccc(=[N+]3CCNCC3)cc-2oc2cc(N3CCNCC3)ccc12
absorption maximum (in CCO): 561 nm
absorption maximum (in O): 542 nm

SMILES: CC[N+]1=C(/C=C/C=C/C=C/C=C2/N(CCCCCC(=O)O)c3ccccc3C2(C)C)C(C)(C)c2cc(S(=O)(=O)[O-])ccc21
absorption maximum (in CO): 751 nm
absorption maximum (in O): 745 nm

SMILES: c1ccc2c(c1)c1ccccc1n2-c1ccc(-c2nnc(-c3ccc(-n4c5ccccc5c5ccccc54)cc3)o2)cc1
absorption maximum (in Cc1ccccc1): 343 nm

SMILES: CCCCCCc1ccc(-n2c3[n+](c4c5ccccc5c5ccccc5c42)[B-](C)(C)c2cc(-n4c5ccccc5c5ccccc54)ccc2-3)cc1
absorption maximum (in C1CCOC1): 370 nm
absorption maximum (in CC#N): 369 nm
absorption maximum (in Cc1ccccc1): 375 nm
absorption maximum (in ClCCl): 372 nm

SMILES: CCCCCCCCCCn1nnc(-c2ccc(C#Cc3ccc(C#Cc4ccc(-c5nnn(CCCCCCCCCC)n5)cc4)c4nc5c6ccccc6c6ccccc6c5nc34)cc2)n1
absorption maximum (in C1CCOC1): 428 nm
absorption maximum (in Cc1ccccc1): 428 nm
absorption maximum (in ClCCl): 428 nm

SMILES: COc1ccc2c(c1)-c1cc(OC)ccc1C2=O
absorption maximum (in C1CCCCC1): 361 nm
absorption maximum (in CC#N): 376 nm
absorption maximum (in CCO): 382 nm

SMILES: CCOC(=O)CN1C(=O)C2=C(c3ccc(N4CCCCC4)cc3)N(CC(=O)OCC)C(=O)C2=C1c1ccc(N2CCCCC2)cc1
absorption maximum (in CC#N): 523 nm
absorption maximum (in CS(C)=O): 540 nm
absorption maximum (in Cc1ccccc1): 520 nm

SMILES: COC(=O)c1cc(=O)n(C)c2cc(-c3ccc(OC)cc3)sc12
absorption maximum (in C1CCOC1): 402 nm
absorption maximum (in CC#N): 396 nm
absorption maximum (in CN(C)C=O): 402 nm
absorption maximum (in CO): 396 nm
absorption maximum (in CS(C)=O): 404 nm
absorption maximum (in Cc1ccccc1): 402 nm

SMILES: CCCC1=Cc2nc1ccc1[nH]c(cc1CCOC)c1nc(ccc3[nH]c2cc3CCC)C(CCC)=C1
absorption maximum (in Cc1ccccc1): 637 nm

SMILES: CN(C)c1ccc(C#Cc2ccc3ccc4c(C#Cc5ccc(N(C)C)cc5)ccc5ccc2c3c54)cc1
absorption maximum (in C1COCCO1): 430 nm
absorption maximum (in CC(C)=O): 447 nm
absorption maximum (in CCCCCC): 439 nm
absorption maximum (in CCCCCCO): 430 nm
absorption maximum (in CCO): 431 nm
absorption maximum (in CCOC(C)=O): 431 nm
absorption maximum (in CO): 436 nm
absorption maximum (in Cc1ccccc1): 433 nm
absorption maximum (in ClCCl): 439 nm

SMILES: CC1(C)OB(c2cc3ccc4cc(B5OC(C)(C)C(C)(C)O5)cc5ccc(c2)c3c45)OC1(C)C
absorption maximum (in Cc1ccccc1): 398 nm

SMILES: Cc1c2ccc(=[N+]3CCCCC3)cc-2oc2cc(N3CCCCC3)ccc12
absorption maximum (in ClCCl): 555 nm

SMILES: CCN(CC)c1ccc2cc(/C=C(\C#N)c3nc4ccccc4o3)c(=O)oc2c1
absorption maximum (in C1COCCO1): 497 nm
absorption maximum (in CC#N): 510 nm
absorption maximum (in CCO): 516 nm
absorption maximum (in CCOC(C)=O): 506 nm
absorption maximum (in CN(C)C=O): 529 nm
absorption maximum (in CO): 509 nm
absorption maximum (in CS(C)=O): 519 nm
absorption maximum (in Cc1ccccc1): 500 nm
absorption maximum (in ClCCl): 511 nm

SMILES: CCCCCC(=O)Oc1cc2[nH]c(cc2CCOC)c2nc(ccc3[nH]c(cc3CCOC)c3nc1C(CCOC)=C3)C(CCOC)=C2
absorption maximum (in Cc1ccccc1): 646 nm

SMILES: C1=C(c2ccccc2)C2=Nc3c(-c4ccccc4)cc4n3[B-]3(Oc5ccccc5C1=[N+]23)Oc1ccccc1-4 (stereo not drawn)
absorption maximum (in Cc1ccccc1): 728 nm
